Test results published in paper PMC8665362, “Identification of small-molecule allosteric modulators that act as enhancers/disrupters of rhodopsin oligomerization” (The Journal of Biological Chemistry, 2021).

Tests used:
bovine rhodopsin = biological target: T1, bovine rhodopsin (Bos taurus, UniProt P02699); experiment: rhodopsin Meta II decay assay (Trp265 intrinsic fluorescence); conditions: 100 μM compound
T1 construct: The washed ROS with isotonic and hypotonic buffers was used as described above; from tissue; host or cells: bovine rod outer segments (ROS)
Procedure: However, oligomerization of isorhodopsin could affect the chromophore release from opsin. The chromophore release can be measured sensitively by the light-induced increase in intrinsic fluorescence of the Trp^265 residue that occurs upon release of the chromophore after illumination ([43]).
The washed ROS with isotonic and hypotonic buffers was used as described above. The solubilized rhodopsin at 1.05 mg/ml in 20 mM 1,3-bis(tris(hydroxymethyl)methylamino) propane, pH 6.9, 100 mM NaCl, and 1 mM LMNG buffer was incubated for 5 min at 20 °C with 0.7 μl of 100 mM stock solutions of the nine identified hit compounds (100 μM final concentration) in DMSO and centrifuged at 1000g for an additional 5 min. Next, photobleaching was carried out with a 150-W fiber light delivered through a 480 to 520 nm band pass filter (Chroma Technology) for 10 s. Samples were subjected to fluorescence measurements acquired through 150 s in triplicate. The results were analyzed with an L55 luminescence spectrophotometer (PerkinElmer) operating at excitation and emission wavelengths of 300 nm and 335 nm, respectively.

[1] = system: individual rod photoreceptors; experiment: single-cell suction electrode recording from rod outer segments; format: cell-based, mouse (C57BL/6J); conditions: suction electrode, 250 μM compound
Procedure: Because it is possible that reduction of Rmax by compound #1 is due to some effect(s) on the rod photoreceptor inner segment currents that are not directly related to phototransduction ([51], [52]), we conducted also single-cell suction electrode recordings from the ROS from samples that were incubated either in the control medium or in the medium containing enhancer compound #1. The results from single cell recordings were similar to those obtained using ex vivo ERG: Rmax and fractional sensitivity were decreased from 12 (±0.4) to 9 (±0.3) pA and from 3.0 (±0.5) to 1.8 (±0.1)% per photon μm^−2, respectively, by rhodopsin dimerization–enhancing hit #1 (Fig. 6, A–C). Like the ex vivo ERG recordings, light response kinetics was not affected by compound #1 in the single-cell recordings (Fig. 6D).
Suction electrode recordings from individual rod photoreceptors of dark-adapted C57BL/6J mice were conducted as described previously ([65]). Before recordings, isolated retinas were incubated in the control medium (Ames’ medium + 0.1% DMSO) or in the hit compound–containing medium (Ames’ medium +250 μM F2502-0030 (#1)) as described above for ex vivo ERG experiments. After incubation, one half of the retina was chopped with a razor blade and transferred into a chamber where it was perfused at 1 ml/min with Ames’ medium saturated with 95% O2/5% CO2 at 35 °C. Recordings were made from a single ROS, using borosilicate glass electrodes with ∼1.5-μm opening (resistance ∼2 MΩ at 35 °C). The pipette solution was Hepes buffered Ames’ medium composed of 0.88 g Ames’ powder (A1420, Sigma-Aldrich), 0.357 g Hepes (Sigma-Aldrich), and 58.44 mg NaCl in […] distilled and vacuum-filtered water. The pH was adjusted to 7.4 with NaOH. Light responses were recorded to flashes of light ranging from 8 to 700 photons μm^−2 at 500 nm. For analysis, data were low-pass filtered using an 8-pole Bessel filter with cut-off frequency at 30 Hz.

[2] = biological target: rhodopsin (isorhodopsin) dimerization (Homo sapiens, UniProt P08100); experiment: rhodopsin β-gal fragment complementation assay in U2OS opsin-EA/opsin-PK cells; format: cell-based; parameters: expressed in transfected cells; conditions: U2OS opsin-EA/PK cells regenerated with 9-cis-retinal; triplicates; read from Fig. 3A,D
Excerpt: To identify small molecules that target rhodopsin dimerization, a cell-based high-throughput screening (HTS) assay was used to screen a diverse library of 50,000 compounds from Life Chemicals. The human osteosarcoma (U2OS) stable cell line was used, which expresses opsin fused with complimentary subunits of β-galactosidase (β-gal), namely, the enzyme acceptor large β-gal subunit (EA) and the enzyme donor, small subunit of β-gal (PK). Upon rhodopsin self-association in vitro, a competent β-gal was formed and chemiluminescent signal was generated in the presence of β-gal substrate (Fig. 1A). For further validation, the β-gal activity assay was used to counter-screen and rule out false positives, affecting the activity of β-gal without affecting rhodopsin (Fig. 1B) ([34]). In an orthogonal assay, rhodopsin dimerization was assessed using a bioluminescence resonance energy transfer (BRET) assay with human embryonic kidney 293 cells expressing opsin fused with Renilla luciferase and opsin fused with Venus (Fig. 1C) ([35], [36]). To form functional visual pigment, opsin-fused proteins were regenerated with 9-cis-retinal to form so-called isorhodopsin ([37]). We chose 9-cis-retinal over photoreceptor-endogenous 11-cis-retinal because of its availability and the prohibitive cost for HTS assays with the native chromophore. Rhodopsin and isorhodopsin have similar biochemical and spectral properties (see ([38])).
All 50,000 compounds were screened, using the β-gal complementation assay at a final concentration of 60 μM with a Z′ factor of 0.75 ± 0.01 and a signal-to-background (S/B) ratio of 123 ± 14.4 (Fig. 2A) ([39]). The activity scores were calculated according to the following equation: (RLU(compound)−RLU(positivecontrol))/(RLU(negativecontrol)−RLU(positivecontrol))×100.
The positive control comprised U2OS cells transfected with both opsin-EA and opsin-PK, mimicking dimer formation (with a 0% score value), and the negative control comprised U2OS cells transfected with opsin-EA only, mimicking disrupted dimer formation (with a 100% score value).
In this study, cultured U2OS opsin-EA and opsin-PK cells were diluted to 2 × 10^5 cells/ml in the culture medium containing 10% fetal bovine serum (Thermo Fisher Scientific) and 1% penicillin-streptomycin 10,000 U/ml (Thermo Fisher Scientific). Cell diluent of 20 μl/well was dispensed into a white ViewPlate-384 (PerkinElmer) using the EL406 plate dispenser (BioTek). As a control, we used U2OS opsin-EA–only expressing cells as a positive control for dimerization disruption generating a minimal luminescence signal, as previously described ([41]). The plates were cultured overnight at 37 °C in 5% CO2, and the next day, under a dim red light, cells were treated with 5 μl/well of 9-cis-retinal (Sigma-Aldrich) at 7.5 μM final concentration. Plates were covered with aluminum foil and cultured overnight at 37 °C in 5% CO2. Next, cells were treated with each of the 50,000 library compounds (Life Chemicals Inc) at a final concentration of 57.6 μM, using a JANUS automated workstation (PerkinElmer), followed by incubation overnight at 37 °C, covered with aluminum foil. The next day, cells were treated with Galacton-Star chemiluminescent substrate (23 μl/well; Thermo Fisher Scientific). The plates were covered with foil and incubated at 20 °C for 2 h, followed by luminescence reading with the EnSpire multimode plate reader (PerkinElmer). Measurements were evaluated with the lowest value being defined as −50% (dimer enhancers) and the highest value as 100% (dimer disrupters) in the compound dataset. All experiments were done under red-light conditions. Identified compounds were retested in triplicates ranging from 180 μM down to 2.4 nM concentrations.

T1 sequence (P02699 whole entry): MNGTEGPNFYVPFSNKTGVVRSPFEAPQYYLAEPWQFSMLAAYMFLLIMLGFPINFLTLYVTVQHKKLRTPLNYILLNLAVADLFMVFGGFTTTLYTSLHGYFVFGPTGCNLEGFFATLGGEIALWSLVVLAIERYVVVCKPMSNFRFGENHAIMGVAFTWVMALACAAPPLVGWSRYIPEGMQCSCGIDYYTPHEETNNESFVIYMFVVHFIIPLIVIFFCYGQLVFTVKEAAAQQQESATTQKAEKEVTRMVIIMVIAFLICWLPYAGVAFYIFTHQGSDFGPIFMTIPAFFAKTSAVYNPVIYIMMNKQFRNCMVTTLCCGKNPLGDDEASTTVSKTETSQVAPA
Chain of rhodopsin (isorhodopsin) dimerization (P08100 whole entry, the tested form may be a part): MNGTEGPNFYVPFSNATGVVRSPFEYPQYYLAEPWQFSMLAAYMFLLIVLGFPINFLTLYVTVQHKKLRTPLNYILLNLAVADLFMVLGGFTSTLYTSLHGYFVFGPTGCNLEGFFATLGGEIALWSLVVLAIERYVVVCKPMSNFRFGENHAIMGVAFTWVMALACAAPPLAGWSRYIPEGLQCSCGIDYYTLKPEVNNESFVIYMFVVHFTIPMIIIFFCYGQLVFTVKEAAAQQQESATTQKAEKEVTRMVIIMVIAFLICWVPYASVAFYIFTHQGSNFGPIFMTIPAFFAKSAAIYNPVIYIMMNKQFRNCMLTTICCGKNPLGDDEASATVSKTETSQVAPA

light-induced increase in Trp265 intrinsic fluorescence vs DMSO-treated isorhodopsin (bovine rhodopsin): significantly quenched
EC50 [2]: 2300 nM
SMILES: O=C(CSc1nnc(NC(=O)Cc2ccc(F)cc2)s1)NO [#1]
Meta II decay rate (slope of intrinsic fluorescence over 150 s) relative to DMSO control (bovine rhodopsin; bleached rhodopsin, p < 0.0001): statistically significant signal reduction
light response kinetics (single-cell) [1]: not affected
fractional sensitivity (single-cell) ([1]; control 3.0 (±0.5)): 1.8 (±0.1) % per photon μm^−2
Rmax (single-cell) ([1]; control 12 (±0.4)): 9 (±0.3) pA
